Data set [1] concerns NCI-H460 cells. The data set is described as follows: Proliferation assay, NCI-H460 (Method 3). It counts as cell-based, human. Particulars: 4 days, crystal violet, read-out: Inhibition of NCI-H460 cell proliferation IC50. As for the experimental part:
(§1) Cultivated tumour cells (HeLa, human cervical tumour cells, ATCC CCL-2; NCI-H460, human non-small cell lung carcinoma cells, ATCC HTB-177; A2780, human ovarian carcinoma cells, ECACC #93112519; DU 145, hormone-independent human prostate carcinoma cells, ATCC HTB-81; HeLa-MaTu-ADR, multidrug-resistant human cervical carcinoma cells, EPO-GmbH Berlin; Caco-2, human colorectal carcinoma cells, ATCC HTB-37; B16F10, mouse melanoma cells, ATCC CRL-6475) were plated at a density of 5,000 cells/well (DU145, HeLa-MaTu-ADR), 3,000 cells/well (NCI-H460, HeLa), 2,500 cells/well (A2780), 1,500 cells/well (Caco-2), or 1,000 cells/well (B16F10) in a 96-well multititer plate in 200 μL of their respective growth medium supplemented 10% fetal calf serum. After 24 hours, the cells of one plate (zero-point plate) were stained with crystal violet (see below), while the medium of the other plates was replaced by fresh culture medium (200 μl), to which the test substances were added in various concentrations (0 μM, as well as in the range of 0.001-10 μM; the final concentration of the solvent dimethyl sulfoxide was 0.5%). The cells were incubated for 4 days in the presence of test substances. Cell proliferation was determined by staining the cells with crystal violet: the cells were fixed by adding 20 μl/measuring point of an 11% glutaric aldehyde solution for 15 minutes at room temperature. After three washing cycles of the fixed cells with water, the plates were dried at room temperature. The cells were stained by adding 100 μl/measuring point of a 0.1% crystal violet solution (pH 3.0). After three washing cycles of the stained cells with water, the plates were dried at room temperature. The dye was dissolved by adding 100 μl/measuring point of a 10% acetic acid solution. The extinction was determined by photometry at a wavelength of 595 nm. The change of cell number, in percent, was calculated by normalization of the measured values to the extinction values of the zero-point plate (=0%) and the extinction of the untreated (0 μm) cells (=100%). The IC50 values (inhibitory concentration at 50% of maximal effect) were determined by means of a 4 parameter fit.

Data set [2] relates to DU145 cells. The data set is described as follows: Proliferation assay, DU145 (Method 3). The note with it: 4 days, crystal violet, read-out: Inhibition of DU145 cell proliferation IC50. The format is cell-based, human. As to the method: as §1
The nature of data set [3]: Caco-2 permeation assay (Method 5). The format is in vitro ADME. The note with it: human, Caco-2, pH 7.2, 2 μM test compound; for Papp A→B at 2 h, 2 µM: read-out: Papp A-B (Mari); for Papp B→A at 2 h, 2 µM: read-out: Papp B-A (Mari); for efflux ratio at 2 h, 2 µM: Papp B-A / Papp A-B. As for the experimental part:
5. Caco-2 Permeation Assay:
Caco-2 cells (purchased from DSMZ Braunschweig, Germany) were seeded at a density of 4.5×10^4 cells per well on 24 well insert plates, 0.4 μm pore size, and grown for 15 days in DMEM medium supplemented with 10% fetal bovine serum, 1% GlutaMAX (100×, GIBCO), 100 U/mL penicillin, 100 μg/mL streptomycin (GIBCO) and 1% non essential amino acids (100×). Cells were maintained at 37° C. in a humidified 5% CO2 atmosphere. Medium was changed every 2-3 day. Before running the permeation assay, the culture medium was replaced by a FCS-free hepes-carbonate transport buffer (pH 7.2). For assessment of monolayer integrity the transepithelial electrical resistance (TEER) was measured. Test compounds were predissolved in DMSO and added either to the apical or basolateral compartment in final concentration of 2 μM in transport buffer. Before and after 2 h incubation at 37° C. samples were taken from both compartments. Analysis of compound content was done after precipitation with methanol by LC/MS/MS analysis. Permeability (Papp) was calculated in the apical to basolateral (A→B) and basolateral to apical (B→A) directions. The apparent permeability was calculated using following equation: Papp=(Vr/Po)(1/S)(P2/t)
Where Vr is the volume of medium in the receiver chamber, Po is the measured peak area or height of the test drug in the donor chamber at t=o, S the surface area of the monolayer, P2 is the measured peak area of the test drug in the acceptor chamber after 2 h of incubation, and t is the incubation time. The efflux ratio basolateral (B) to apical (A) was calculated by dividing the Papp B-A by the Papp A-B. In addition the compound recovery was calculated. The following reference compounds were used for the classification of the permeability class: Antipyrine, Pyrazosin, Verapamil, Fluvastatin, Cimetidine, Ranitidine, Atenolol, Sulfasalazine.

The nature of data set [4]: Equilibrium shake flask solubility assay, thermodynamic solubility in citrate buffer pH 4 (Method 4b). It counts as physicochemical. Particulars: aqueous buffer, thermodynamic from solid; citrate buffer pH 4, 24 h, room temperature; read-out: Solubility in Citrate buffer pH4. As to the method:
4b) Thermodynamic Solubility in Citrate Buffer pH 4
Thermodynamic solubility was determined by an equilibrium shake flask method [Literature: Edward H. Kerns and Li Di (2008) Solubility Methods in: Drug-like Properties: Concepts, Structure Design and Methods, p 276-286. Burlington, Mass.: Academic Press].
A saturated solution of the drug was prepared and the solution was mixed for 24 h to ensure that equilibrium has been reached. The solution was centrifuged to remove the insoluble fraction and the concentration of the compound in solution was determined using a standard calibration curve.
To prepare the sample, 1.5 mg solid compound was weighed in a 4 ml glass vial. 1 ml Citrate buffer pH 4 was added. The suspension was put on a stirrer and mixed for 24 hrs at room temperature. The solution was centrifuged afterwards. To prepare the sample for the standard calibration, 0.6 mg solid sample was dissolved in 19 ml acetonitrile/water 1:1. After sonification the solution was filled up with acetonitrile/water 1:1 to 20 ml.
Sample and standards were quantified by HPLC with UV-detection. For each sample two injection volumes (5 and 50 μl) in triplicates were made. Three injection volumes (5 μl, 10 μl and 20 μl) were made for the standard.
Citrate buffer pH 4 (MERCK Art. 109435; 1 L buffer consisting of 11,768 g citric acid,
4,480 g sodium hydroxide, 1,604 g hydrogen chloride)
Chromatographic conditions were as follows:
HPLC column: Xterra MS C18 2.5 μm 4.6×30 mm
Injection volume: Sample: 3×5 μl and 3×50 μl
• Standard: 5 μl, 10 μl, 20 μl Flow: 1.5 ml/min Mobile phase: acidic gradient: • A: Water/0.01% TFA • B: Acetonitrile/0.01% TFA • 0 min: 95% A 5% B • 0-3 min: 35% A 65% B, linear gradient • 3-5 min: 35% A 65% B, isocratic • 5-6 min: 95% A 5% B, isocratic UV detector: wavelength near the absorption maximum (between 200 and 400 nm)
The areas of sample- and standard injections as well as the calculation of the solubility value (in mg/l) were determined by using HPLC software (Waters Empower 2 FR).

The values below come from patent US9650361B2, “N-(pyridin-2-yl)pyrimidin-4-amine derivatives containing a sulfoximine group” (BAYER PHARAM AKTIENGESELLSCHAFT, priority 2012, dated 2017).

pIC50: −log10 of the molar value. Values after ≈ are worked out from the molar mass of the structure shown. Where two headings read alike, the source gives them in different places.

As for `COc1cc(F)ccc1-c1cc(Nc2cc(CS(C)(=N)=O)ccn2)ncn1` (racemic) [Example 1, (rac)-6-(4-Fluoro-2-methoxyphenyl)-N-{4-[(S-methylsulfonimidoyl)methyl]pyridin-2-yl}pyrimidin-4-amine], the pIC50 in data set [1] (Homo sapiens, NCI-H460, 96 h) is 6.20. In addition, the pIC50 in data set [2] (Homo sapiens, DU-145, 96 h) is 6.51. Besides, in data set [3], the apparent permeability from apical to basolateral (Papp A→B) at 2 h, 2 µM is 2.6 ×10⁻⁶ cm/s; the Papp B→A at 2 h, 2 µM worked out at 24.3 ×10⁻⁶ cm/s; the efflux ratio at 2 h, 2 µM came to 9.3.
Regarding `COc1cc(F)ccc1-c1cc(Nc2cc(CS(C)(=N)=O)cc(Cl)n2)ncn1` (racemic) [Example 4, (rac)-N-{6-Chloro-4-[(S-methylsulfonimidoyl)methyl]pyridin-2-yl}-6-(4-fluoro-2-methoxyphenyl)pyrimidin-4-amine], the pIC50 in data set [1] (Homo sapiens, NCI-H460, 96 h) was 6.43; in data set [2] (Homo sapiens, DU-145, 96 h), 7.11. For the same compound, the solubility at 24 h in data set [4] was 15 µg/mL (≈ 35.6 µM).
`COc1cc(F)ccc1-c1cc(Nc2cc(CS(C)(=N)=O)cc(C)n2)ncn1` (racemic) [Example 7, (rac)-6-(4-Fluoro-2-methoxyphenyl)-N-{6-methyl-4-[(S-methylsulfonimidoyl)methyl]pyridin-2-yl}pyrimidin-4-amine]: in data set [1] (Homo sapiens, NCI-H460, 96 h), the pIC50 was 6.43. Further, in data set [2] (Homo sapiens, DU-145, 96 h), the pIC50 was 6.92. Also, in data set [4], the solubility at 24 h is 157 µg/mL (≈ 391 µM). For the same compound, in data set [3], the Papp A→B at 2 h, 2 µM came out at 3.9 ×10⁻⁶ cm/s; the Papp B→A at 2 h, 2 µM was found to be 28.9 ×10⁻⁶ cm/s; the efflux ratio at 2 h, 2 µM worked out at 7.49.
Consider `COc1cc(F)ccc1-c1cc(Nc2cc(CS(C)(=N)=O)cc(C(F)(F)F)n2)ncn1` (racemic) [Example 10, (rac)-6-(4-Fluoro-2-methoxyphenyl)-N-{4-[(S-methylsulfonimidoyl)methyl]-6-(trifluoromethyl)pyridin-2-yl}pyrimidin-4-amine], for which, in data set [1] (Homo sapiens, NCI-H460, 96 h), the pIC50 was 6.87. In addition, in data set [2] (Homo sapiens, DU-145, 96 h), the pIC50 is 7.06. For the same compound, the solubility at 24 h in data set [4] was 11 µg/mL (≈ 24.2 µM). Moreover, in data set [3], the Papp A→B at 2 h, 2 µM is 4.5 ×10⁻⁶ cm/s; the Papp B→A at 2 h, 2 µM amounted to 20.6 ×10⁻⁶ cm/s; the efflux ratio at 2 h, 2 µM is 4.58.
As for `COc1cc(F)ccc1-c1cc(Nc2cc(CS(C)(=N)=O)cc(Cl)n2)ncn1` (single isomer, unassigned) [Example 5, N-{6-Chloro-4-[(S-methylsulfonimidoyl)methyl]pyridin-2-yl}-6-(4-fluoro-2-methoxyphenyl)pyrimidin-4-amine], the pIC50 in data set [1] (Homo sapiens, NCI-H460, 96 h) was 6.73; in data set [2] (Homo sapiens, DU-145, 96 h), 6.98.
On to `COc1cc(F)ccc1-c1cc(Nc2cc(CS(C)(=N)=O)cc(Cl)n2)ncn1` (single isomer, unassigned) [Example 6, N-{6-Chloro-4-[(S-methylsulfonimidoyl)methyl]pyridin-2-yl}-6-(4-fluoro-2-methoxyphenyl)pyrimidin-4-amine], for which the figures for the pIC50 in data set [1] and in data set [2] were 6.72 and 6.96, respectively.
Consider `COc1cc(F)ccc1-c1cc(Nc2cc(CS(C)(=N)=O)cc(C)n2)ncn1` (single isomer, unassigned) [Example 8, 6-(4-Fluoro-2-methoxyphenyl)-N-{6-methyl-4-[(S-methylsulfonimidoyl)methyl]pyridin-2-yl}pyrimidin-4-amine], for which the pIC50 in data set [1] (Homo sapiens, NCI-H460, 96 h) was 6.50; in data set [2] (Homo sapiens, DU-145, 96 h), 6.75.
For the compound `COc1cc(F)ccc1-c1cc(Nc2cc(CS(C)(=N)=O)cc(C)n2)ncn1` (single isomer, unassigned) [Example 9, 6-(4-Fluoro-2-methoxyphenyl)-N-{6-methyl-4-[(S-methylsulfonimidoyl)methyl]pyridin-2-yl}pyrimidin-4-amine], the pIC50 in data set [1] is 6.71; in data set [2], 6.90.
